Series [1] has as its system hairpin duplex, 5'-biotin-CGA3T3C(CT)2GA3T3CG (DNA, hairpin) CGAAATTTCCTCTGAAATTTCG
The experiment in a line: SPR. On the technique in general: In SPR one partner is held on a chip, and binding of the other changes the refractive index at the surface.

Series [2] has as its system h-Tel quadruplex DNA, 5'-biotin-d[AG3(T2AG3)3] (DNA, G4) AGGGTTAGGGTTAGGGTTAGGG
As to the kind of experiment: SPR.

The test system of series [3] is human colon cancer cell line HT-29. As to the kind of experiment: MTT proliferation assay, HT-29. Type of series: cell-based. To be noted: 96 hours. The procedure: (§1) Normal WI-38 diploid human lung fibroblasts and the human colorectal adenocarcinoma HT29 cells were obtained from American Type Culture Collection (Manassas, VA, USA). BJ fibroblasts expressing hTERT and SV40 early region (BJ-EHLT) were obtained as previously reported. Cells were grown in Dulbecco Modified Eagle Medium (D-MEM, Invitrogen Carlsbad, CA, USA) supplemented with 10% fetal calf serum, 2 mM L-glutamin and antibiotics.
(§2) MTT (3-(4,5-Dimethylthiazol-2-yl)-2,5-diphenyltetrazolium Bromide) assay was performed in treated and untreated cells for 96 hours. Cells were incubated with MTT solution (Sigma-Aldrich), and the purple formazan crystals were dissolved in isopropanol. Optical densities (OD) at 540 nm was determined on microplate reader.
(§3) Firstly, we investigated if they were able to efficiently promote growth inhibition of tumor cells without affecting the survival of normal cells in vitro. In Table 1 we report for each compound the concentration causing 50% of growth inhibition (GI50) calculated by performing a proliferation assay in the human colon cancer cell line HT-29 or in the human ‘normal’ lung WI-38 cells. […] On the basis of results described so far, we decided to exclude from the further analysis ligand 10 for its high value of hERG inhibition (95%) (Table 1).
On the technique in general: Tetrazolium assays rely on reduction of a dye to a coloured formazan, in cell work by metabolically active cells.

In series [4] the target is human recombinant β2 adrenergic receptor (Homo sapiens, UniProt P07550). As to the kind of experiment: β2 adrenergic receptor inhibition assay. The series is classed as binding. To be noted: read-out: β2 adrenergic % inh @1 μM. The procedure: (§4) hEGR study and the M2 and the β2 receptor inhibition assay were performed as previously reported.
Sequence of human recombinant β2 adrenergic receptor (P07550 whole entry): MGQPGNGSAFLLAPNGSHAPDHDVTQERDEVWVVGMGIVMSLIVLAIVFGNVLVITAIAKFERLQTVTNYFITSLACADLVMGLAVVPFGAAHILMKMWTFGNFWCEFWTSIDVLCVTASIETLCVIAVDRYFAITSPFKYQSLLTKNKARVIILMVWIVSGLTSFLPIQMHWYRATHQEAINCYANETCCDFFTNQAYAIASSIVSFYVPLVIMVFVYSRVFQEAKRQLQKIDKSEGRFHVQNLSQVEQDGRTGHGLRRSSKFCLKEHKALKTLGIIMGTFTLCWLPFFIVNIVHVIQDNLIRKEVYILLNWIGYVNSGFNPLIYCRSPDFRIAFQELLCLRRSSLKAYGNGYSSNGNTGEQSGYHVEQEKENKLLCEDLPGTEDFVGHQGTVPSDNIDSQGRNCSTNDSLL
(§5) The new G-quadruplex ligands were designed in an attempt to obtain molecules with improved toxicological and on-target profiles, but maintaining the same favorable chemical and pharmacological features of the lead compound 1. With the aim of selecting the best variants, a step by step comparative analysis of their off- and on-target properties was performed. Initially the new molecules were tested for their ability to interact with and inhibit the human recombinant β2 adrenergic and M2 muscarinic receptors, and to reduce the hERG tail current in a patch clamp assay. […] Therefore, we might expect that the new ligands would impair cardiac functionality to a lesser extent than the lead molecule does.

Series [5] has as its system BJ-EHLT fibroblasts. The experiment in a line: γ-H2AX/PCNA co-immunostaining (replication-dependent DNA damage). Type of series: cell-based, human. To be noted: 24 hrs. The procedure:
(§6) Cells were fixed in 2% formaldehyde and permeabilized in 0.25% Triton X100 in PBS for 5 min at room temperature. For immunolabeling, cells were incubated with primary antibody, then washed in PBS and incubated with the secondary antibodies. The following primary antibodies were used: pAb and mAb anti-TRF1(Abcam Ltd.; Cambridge UK); mAb (Upstate, Lake Placid, NY) and pAb anti-γH2AX (Abcam); mAb anti-PCNA (Sigma Chemicals, Milano, Italy). The following secondary antibody were used: TRITC conjugated Goat anti Rabbit, FITC conjugated Goat anti Mouse (Jackson ImmunoResearch Europe Ltd., Suffolk, UK). Fluorescence signals were recorded by using a Leica DMIRE2 microscope equipped with a Leica DFC 350FX camera and elaborated by a Leica FW4000 deconvolution software (Leica, Solms, Germany). This system permits to focus single planes inside the cell generating 3D highresolution images. For quantitative analysis of γH2AX positivity, 200 cells on triplicate slices were scored. For TIFs analysis, in each nucleus a single plane was analyzed and at least 50 nuclei per sample were scored.
Figure 2 DNA damage activation at telomeres. BJ-EHLT fibroblasts were treated for 24 hrs with compound 1 and the indicated ligands at the doses 0.1 (light-grey bars) and 0.5 μM (dark-grey bars). […] Cells with four or more γ-H2AX/TRF1 foci were scored as TIF positive. […]

The test system of series [6] is alternating hairpin duplex sequence 5'-biotin-CGA3T3C(CT)2GA3T3CG. As to the kind of experiment: SPR binding to duplex DNA. On the procedure:
(§7) Oligonucleotides 5’-biotin-d [AG3 (T2AG3)3] quadruplex and 5’-biotin-CGA3T3C(CT)2GA3T3CG were purchased from Midland Certified Reagent Company (Midland, TX). Purification of DNA, preparation of solutions, collection of data, and analysis of results were conducted according to methods adopted in an earlier study.
(§8) This technique takes advantage of the refractive index change elicits by the binding of the drug with the h-Tel quadruplex DNA sequence 5’-d[AGGG(TTAGGG)3]-3’ or an alternating hairpin duplex sequence immobilized on a sensor chip surface.

Series [7] relates to h-Tel quadruplex DNA sequence 5'-d[AGGG(TTAGGG)3]-3'. As to the kind of experiment: SPR binding to quadruplex DNA. Also noted: species or system human. On the procedure:
as §7, §8

Series [8] concerns the target T1, human recombinant M2 muscarinic receptor (Homo sapiens, UniProt P08172).
T1 sequence (P08172 1-466): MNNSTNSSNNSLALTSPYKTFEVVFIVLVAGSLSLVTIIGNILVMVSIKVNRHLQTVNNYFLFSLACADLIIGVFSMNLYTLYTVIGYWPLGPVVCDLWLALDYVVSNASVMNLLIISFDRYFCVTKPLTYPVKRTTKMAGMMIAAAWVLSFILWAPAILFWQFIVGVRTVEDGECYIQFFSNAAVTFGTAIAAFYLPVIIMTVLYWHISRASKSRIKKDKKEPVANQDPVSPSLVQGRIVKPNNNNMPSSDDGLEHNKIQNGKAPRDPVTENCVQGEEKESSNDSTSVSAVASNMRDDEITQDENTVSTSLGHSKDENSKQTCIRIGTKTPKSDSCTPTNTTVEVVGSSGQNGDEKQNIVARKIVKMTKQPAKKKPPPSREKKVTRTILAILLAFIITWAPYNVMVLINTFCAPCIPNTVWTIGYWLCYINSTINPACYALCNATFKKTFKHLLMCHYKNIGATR
The experiment in a line: M2 muscarinic receptor inhibition assay. The series is classed as binding. To be noted: read-out: Muscarinic (M2) % inh @1 μM. On the procedure:
as §4, §5

Series [9] concerns human 'normal' lung WI-38 cells. The experiment in a line: MTT proliferation assay, WI-38. To be noted: for Ratio PMX WI38/HT29: GI50 WI-38 / GI50 HT-29; for GI50: Homo sapiens, WI-38, MTT, 96 hours. Type of series: cell-based. The procedure: as §1, §2, §3
Series [10] deals with hERG (Homo sapiens, UniProt Q12809). The experiment in a line: hERG tail current inhibition in a patch clamp assay. Type of series: cell-based. To be noted: read-out: hERG % inh @10 μM. On the procedure:
as §4, §5
(In general: The hERG channel carries a current that helps repolarise heart muscle cells.)

The subject of series [11] is BJ-EHLT fibroblasts. The experiment in a line: γ-H2AX/TRF1 colocalization (TIFs, telomere uncapping). Type of series: cell-based, human. On the procedure: as §6
Unfortunately, we were not able to test compounds 4, 5 and the 0,5 μM dose of 3 as they were fluorescent in both red and green channels. […] To ascertain whether γ-H2AX was phosphorylated in response to dysfunctional telomeres, double immunofluorescence experiments were processed by confocal microscopy. We observed that some of the γ-H2AX foci induced by G4-ligands colocalized with TRF1, a good marker for interphase telomeres, forming the so-called telomere dysfunction-induced foci (TIFs) (Figure 2B).
Figure 2 DNA damage activation at telomeres. BJ-EHLT fibroblasts were treated for 24 hrs with compound 1 and the indicated ligands at the doses 0.1 (light-grey bars) and 0.5 μM (dark-grey bars). Cells were processed for immunofluorescence (IF) using antibodies against γ-H2AX and TRF1 to mark DNA damage and telomeres respectively. Percentages of γ-H2AX- (A) and TIF-positive (B) treated and untreated cells are reported in the histograms. (C) Mean number of TIFs in the indicated samples. Cells with four or more γ-H2AX/TRF1 foci were scored as TIF positive. Error bars indicate the standard deviation. (D) Representative images of IF of untreated and 1, 3, 6 and 8-treated BJ-EHLT cells. Enlarged views of TIFs are reported on the right of the merged images. The images were acquired with a Leica Deconvolution microscope (magnification 100x). (E) Cells treated as in (A) were processed for IF of γ-H2AX and PCNA to mark replicating cells. Percentage of γ-H2AX+/PCNA- or γ-H2AX+/PCNA + nuclei in the indicated samples are reported in the histograms.

The results in this text go back to publication PMC4193996 (Journal of Experimental & Clinical Cancer Research : CR, 2014).

Sequence of hERG (Q12809 whole entry): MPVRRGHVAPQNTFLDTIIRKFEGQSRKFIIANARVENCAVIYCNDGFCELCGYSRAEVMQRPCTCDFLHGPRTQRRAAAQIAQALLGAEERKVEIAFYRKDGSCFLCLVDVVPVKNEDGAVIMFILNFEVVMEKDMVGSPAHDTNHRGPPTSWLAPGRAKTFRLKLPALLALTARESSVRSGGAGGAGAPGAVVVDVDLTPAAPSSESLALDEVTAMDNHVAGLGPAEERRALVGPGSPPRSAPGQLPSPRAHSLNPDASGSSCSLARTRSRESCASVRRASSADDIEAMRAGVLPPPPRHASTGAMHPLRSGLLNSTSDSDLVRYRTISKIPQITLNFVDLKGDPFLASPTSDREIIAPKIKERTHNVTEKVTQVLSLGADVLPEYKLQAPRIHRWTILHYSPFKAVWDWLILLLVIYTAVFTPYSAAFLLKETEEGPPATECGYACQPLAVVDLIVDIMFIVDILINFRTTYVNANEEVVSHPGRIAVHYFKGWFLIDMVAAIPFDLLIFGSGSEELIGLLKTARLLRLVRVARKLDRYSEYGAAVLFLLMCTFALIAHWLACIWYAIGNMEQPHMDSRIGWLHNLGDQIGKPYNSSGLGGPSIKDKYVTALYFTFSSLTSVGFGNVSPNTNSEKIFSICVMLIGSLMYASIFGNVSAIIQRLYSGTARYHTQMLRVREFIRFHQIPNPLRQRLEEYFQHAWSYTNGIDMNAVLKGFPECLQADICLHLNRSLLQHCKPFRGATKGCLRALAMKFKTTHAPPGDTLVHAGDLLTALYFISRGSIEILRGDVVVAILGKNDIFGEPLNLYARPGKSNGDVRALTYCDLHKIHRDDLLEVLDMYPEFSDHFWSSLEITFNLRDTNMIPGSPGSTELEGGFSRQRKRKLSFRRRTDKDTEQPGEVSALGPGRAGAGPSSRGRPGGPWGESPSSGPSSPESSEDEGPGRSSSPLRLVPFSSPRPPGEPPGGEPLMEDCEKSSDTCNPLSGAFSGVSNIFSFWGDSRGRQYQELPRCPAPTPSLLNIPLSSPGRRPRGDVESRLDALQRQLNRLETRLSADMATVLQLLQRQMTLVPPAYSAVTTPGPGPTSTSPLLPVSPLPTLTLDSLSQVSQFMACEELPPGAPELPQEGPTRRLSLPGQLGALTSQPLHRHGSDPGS

As usually defined, the GI50 is the concentration that inhibits growth by half. A higher GI50 goes with less potent growth inhibition. Consider `Cc1cc2c3c([n+](C)c4ccc(F)cc4c3c1)-c1cc(F)ccc1N2C` [Compound 1, 3,11-difluoro-6,8,13-trimethyl-8H-quino [4,3,2-kl] acridinium methosulfate, reference compound], for which the values for the K in series [1] and in series [2] were 600000 M⁻¹ and 9e+06 M⁻¹, respectively. In addition, the GI50 in [3] was determined as 620 nM; in [9], 7.2 µM. Also, the results for the inhibition at 1 µM in series [4] and in series [8] were 100% and 98%, respectively. In addition, the “γ-H2AX foci formation relative to PCNA status” value in series [5] is on record as “almost exclusively restricted to PCNA-positive”. Moreover, in [6], the “Duplex DNA affinity K” value amounted to 600000 M⁻¹. In series [7], the “Quadruplex DNA affinity K” value was determined as 9e+06 M⁻¹. Moreover, the “Ratio PMX WI38/HT29” value in series [9] is given as 11,6.
For `CN1c2ccccc2-c2c3c1cccc3c1ccc(NC(=O)C3CC3)cc1[n+]2C` [Compound 3], the inhibition at 10 µM in series [10] is 74%. In addition, the values for the K in series [1] and in [2] were 100000 M⁻¹ and 2.2e+07 M⁻¹, respectively. The figures for the GI50 in series [3] and in series [9] were 700 nM and 13 µM, respectively. In addition, the inhibition at 1 µM in series [4] worked out at 13%; in [8] it was 98%. Moreover, the “Duplex DNA affinity K” value in series [6] was 0,1 x10^6 M^−1. Also, in series [7], the “Quadruplex DNA affinity K” value is 22,0 x10^6 M^−1. In addition, the Quadruplex/duplex ratio in series [7] (quadruplex vs duplex affinity) is on record as 244,4. The “mean TIFs per nucleus” value in series [11] (24 hrs) was “about seven”. For the same compound, in series [11] (24 hrs, 0,1 μM), the “percentage of cells with more than four γ-H2AX/TRF1 colocalizations (TIF-positive)” value is recorded as “about 18%”. Besides, the “Ratio PMX WI38/HT29” value in [9] was 18,5.
